Here are results for 5 compounds from PubChem BioAssay AID248 (DTP/NCI, 2004).

The subject of the assay is L1210 leukemia ip in BDF1 mice, survival T/C. Description: NCI In Vivo Anticancer Drug Screen. Data for tumor model L1210 Leukemia (intraperitoneal) in B6D2F1 (BDF1) mice. The note with it: endpoint: mean survival time, higher = longer survival. The method in brief:
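Transplanted-tumor mice were given test agent; controls received vehicle only. Survival readings from the two groups were divided (treated over control).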

Toxic doses and inconclusive results are not listed.

As to `O=C1C=C(C23CC4CC(CC(C4)C2)C3)N2CCCc3cccc(c32)N1`, the T/C is, setting by setting: (dose: 100.0 mg/kg/injection, schedule: Q04DX002 (ip), vehicle: Klucel (hydroxypropylcellulose) (HPC)) 97 % of control; (dose: 200.0 mg/kg/injection, schedule: Q04DX002 (ip), vehicle: Klucel (hydroxypropylcellulose) (HPC)) 105 % of control; (dose: 400.0 mg/kg/injection, schedule: Q04DX002 (ip), vehicle: Klucel (hydroxypropylcellulose) (HPC)) 97 % of control.
As for `CCC[CH2][Sn]1([CH2]CCC)[O]OC(c2ccc(C(=O)OCC)cc2)[O]1` (centres undefined), the T/C (dose: 6.25 mg/kg/injection, schedule: Q04DX002 (ip), vehicle: other) was 102 % of control.
Regarding `C[N+]1(C)CCC(=O)CC1`, the T/C is, setting by setting: (dose: 100.0 mg/kg/injection, schedule: Q04DX003 (ip), vehicle: saline with Tween-80) 98 % of control; (dose: 200.0 mg/kg/injection, schedule: Q04DX003 (ip), vehicle: saline with Tween-80) 98 % of control; (dose: 400.0 mg/kg/injection, schedule: Q04DX003 (ip), vehicle: saline with Tween-80) 95 % of control.
On to `O=COC1CC2CCC1C2` (centres undefined), for which the T/C by setting is: (dose: 100.0 mg/kg/injection, schedule: Q04DX002 (ip), vehicle: saline) 95 % of control; (dose: 200.0 mg/kg/injection, schedule: Q04DX002 (ip), vehicle: saline) 98 % of control; (dose: 400.0 mg/kg/injection, schedule: Q04DX002 (ip), vehicle: saline) 100 % of control.
Turning to `O=c1cc(C2CCCCC2)[nH]c(=S)[nH]1`, the T/C runs as follows: (dose: 50.0 mg/kg/injection, schedule: Q01DX001 (ip), vehicle: carboxymethylcellulose (CMC)) 101 % of control; (dose: 100.0 mg/kg/injection, schedule: Q01DX001 (ip), vehicle: carboxymethylcellulose (CMC)) 92 % of control; (dose: 200.0 mg/kg/injection, schedule: Q01DX001 (ip), vehicle: carboxymethylcellulose (CMC)) 86 % of control; (dose: 400.0 mg/kg/injection, schedule: Q01DX001 (ip), vehicle: carboxymethylcellulose (CMC)) 90 % of control.
